What all share (assay): Penicillin MIC (E-test / population analysis)
Holding throughout (format): cell-based

Experiment [1] relates to S. pneumoniae Clev2, disrupted murMN operon. The following applies: Streptococcus pneumoniae, strain Clev2 (serotype 23F, Spanish/USA).
Experiment [2] relates to S. pneumoniae Sp2150, disrupted murMN operon. The following applies: Streptococcus pneumoniae, strain Sp2150 (serotype 9/14, French/Spanish).
Experiment [3] has as its system S. pneumoniae Hun663Tr4Tr5, disrupted murMN operon. The following applies: Streptococcus pneumoniae, strain Hun663Tr4Tr5 (transformant).
For experiment [4], the system named is S. pneumoniae Ala1, disrupted murMN operon. The following applies: Streptococcus pneumoniae, strain Ala1 (serotype 6B, Alaskan).
In experiment [5] the test system is S. pneumoniae Ala1, intact murMN operon. The following applies: Streptococcus pneumoniae, strain Ala1 (serotype 6B, Alaskan). The protocol: (§1) Transformation, population analysis profiles and determination of penicillin resistance level S. pneumoniae R36A and Pen6 were transformed essentially according to published procedures (8). To induce competence, synthetic CSPα was added to the medium at a concentration of 250 ng/ml. The competent cells were then incubated for 30 min at 30° C. in the presence of plasmidic DNA followed by the addition of 2 ml of C+Y medium and a 2 h incubation at 37° C. Transformants were selected on blood agar plates (TSA+3% (v/v) sheep blood) containing 1 μg/ml erythromycin. Population analysis profiles (PAPs) were determined by plating serial dilutions of early stationary phase cultures on plates of TSA containing 5% (v/v) of sheep blood (Micropure Medical Inc, White Bear Lake, Minn.), and different concentrations of Penicillin G (Sigma) (0, 0.01, 0.03, 0.06, 0.125, 0.25, 0.5, 1, 2, 4, 8, 16 ([…]). The PAPs were done with and without the presence of […] erythromycin in the medium. Plates were incubated at 37° C. in a 5% CO2-in-air atmosphere for 24 h and the number of bacteria capable of forming colonies in the presence of various penicillin concentrations was plotted against the concentration of penicillin in the agar medium. Penicillin resistance levels (minimal inhibitory concentration, MIC) were determined by the E-test following the manufacturers guidelines (AB Bidosk, Sweden).

For experiment [6], the system named is S. pneumoniae Pen6, intact murMN operon. As to conditions: Streptococcus pneumoniae, read-out: Penicillin MIC. Here is the method:
as §1

The test system of experiment [7] is S. pneumoniae Hun663, intact murMN operon. The following applies: Streptococcus pneumoniae, read-out: Penicillin MIC. The protocol:
as §1

The test system of experiment [8] is S. pneumoniae Sp2150, intact murMN operon. The following applies: Streptococcus pneumoniae, strain Sp2150 (serotype 9/14, French/Spanish). Here is the method: as §1
In experiment [9] the test system is S. pneumoniae 8249, intact murMN operon. The following applies: Streptococcus pneumoniae, strain 8249 (serotype 19A, South African). Here is the method:
as §1

Experiment [10] concerns S. pneumoniae R36A, intact murMN operon. As to conditions: Streptococcus pneumoniae, strain R36A (laboratory strain). Here is the method:
as §1

For experiment [11], the system named is S. pneumoniae Clev2, intact murMN operon. The following applies: Streptococcus pneumoniae, read-out: Penicillin MIC. Here is the method: as §1
Experiment [12] has as its system S. pneumoniae R36A, disrupted murMN operon. The following applies: Streptococcus pneumoniae, strain R36A (laboratory strain). Here is the method: (§2) Inactivation of the murMN operon. For gene disruption experiments, internal fragments of murM, from the bacterial strains R36A and Pen6, were amplified by PCR and cloned into pJDC9 (9). For amplification of the internal fragment of murM from R36A the following primers were used 5′-[…]-3′ (SEQ ID NO: 26) and 5′-[…]-3′ (SEQ ID NO: 27) giving origin to the plasmid pZOO5. Amplification of the internal fragment of murM from Pen6 was carried out using the primers 5′-[…]-3′ (SEQ ID NO:28) and 5′-[…]-3′ (SEQ ID NO: 29) giving origin to the plasmid pZOO6. For inactivation of the murMN operon in R36A and in Pen6, competent cells of R36A and Pen6 were transformed respectively with plasmids pZOO5 and pZOO6 (FIG. 1B).
(§3) Transformation, population analysis profiles and determination of penicillin resistance level S. pneumoniae R36A and Pen6 were transformed essentially according to published procedures (8). To induce competence, synthetic CSPα was added to the medium at a concentration of 250 ng/ml. The competent cells were then incubated for 30 min at 30° C. in the presence of plasmidic DNA followed by the addition of 2 ml of C+Y medium and a 2 h incubation at 37° C. […] Penicillin resistance levels (minimal inhibitory concentration, MIC) were determined by the E-test following the manufacturers guidelines (AB Bidosk, Sweden).

In experiment [13] the test system is S. pneumoniae Pen6, disrupted murMN operon. As to conditions: Streptococcus pneumoniae, strain Pen6 (transformant). Here is the method:
as §2, §3

Each structure is given as a SMILES string. Converted amounts (≈) assume the structure as drawn.

Take `CC1(C)S[C@@H]2[C@H](NC(=O)Cc3ccccc3)C(=O)N2[C@H]1C(=O)O` [Penicillin, Penicillin G]: the MIC in [1] was determined as 0.016 µg/mL (≈ 0.0478 µM); in experiment [2], 0.032 µg/mL (≈ 0.0957 µM); in experiment [3], 0.032 µg/mL (≈ 0.0957 µM); in [4], 0.064 µg/mL (≈ 0.191 µM); in experiment [5], 0.12 µg/mL (≈ 0.359 µM); in experiment [6] it was 6 µg/mL (≈ 17.9 µM). For the same compound, the MIC in [7] was 1.6 µg/mL (≈ 4.78 µM); in experiment [8], 1 µg/mL (≈ 2.99 µM); in [9], 6 µg/mL (≈ 17.9 µM); in experiment [10], 0.023 µg/mL (≈ 0.0688 µM); in [11] it was 1.6 µg/mL (≈ 4.78 µM); in [12] it was 0.023 µg/mL (≈ 0.0688 µM). In experiment [13], this compound yielded an MIC of 0.032 µg/mL (≈ 0.0957 µM).

For orientation: MIC means the least concentration at which growth counts as inhibited.

Source of the values: patent US20050165224A1, “Inhibition of penicillin resistance in s. pneumoniae” (priority 2000, published 2005).
